ChEMBL document CHEMBL4649985, “Generation of a Selective Small Molecule Inhibitor of the CBP/p300 Bromodomain for Leukemia Therapy” (Cancer Res, 2015)
Where “and” joins values, the source holds several entries; their conditions need not be identical. Identical values can stand only once.

Experiments:
[1] = biological target: Protein polybromo-1 (Homo sapiens) (UniProt Q86U86); details: Compound concentration 10.0 uM, Protein concentration 2.0 uM
[2] = biological target: Transcription initiation factor TFIID subunit 1 (Homo sapiens) (UniProt P21675); details: Compound concentration 10.0 uM, Protein concentration 2.0 uM
[3] = biological target: Bromodomain and WD repeat-containing protein 3 (Homo sapiens) (UniProt Q6RI45); details: Compound concentration 10.0 uM, Protein concentration 2.0 uM
[4] = biological target: Transcription initiation factor TFIID subunit 1-like (Homo sapiens) (UniProt Q8IZX4); details: Compound concentration 10.0 uM, Protein concentration 2.0 uM
[5] = biological target: Histone acetyltransferase KAT2A (Homo sapiens) (UniProt Q92830); details: Compound concentration 10.0 uM, Protein concentration 2.0 uM
[6] = biological target: Tripartite motif-containing protein 66 (Homo sapiens) (UniProt O15016); test: Thermal Shift Assay. Domain start/stop: M1091-S1218; details: Compound concentration 10.0 uM, Protein concentration 2.0 uM
[7] = biological target: Nucleosome-remodeling factor subunit BPTF (Homo sapiens) (UniProt Q12830); details: Compound concentration 10.0 uM, Protein concentration 2.0 uM
[8] = biological target: Transcription initiation factor TFIID subunit 1-like (Homo sapiens) (UniProt Q8IZX4); details: Compound concentration 10.0 uM, Protein concentration 2.0 uM; remark: listed apart in the source
[9] = biological target: Bromodomain-containing protein 9 (Homo sapiens) (UniProt Q9H8M2); details: Compound concentration 10.0 uM, Protein concentration 2.0 uM
[10] = biological target: Bromodomain-containing protein 3 (Homo sapiens) (UniProt Q15059); test: Thermal Shift Assay. Domain start/stop: P24-E144; details: Compound concentration 10.0 uM, Protein concentration 2.0 uM
[11] = biological target: ATPase family AAA domain-containing protein 2B (Homo sapiens) (UniProt Q9ULI0); details: Compound concentration 10.0 uM, Protein concentration 2.0 uM
[12] = biological target: Nuclear body protein SP140-like protein (Homo sapiens) (UniProt Q9H930); details: Compound concentration 10.0 uM, Protein concentration 2.0 uM
[13] = biological target: Nuclear body protein SP140 (Homo sapiens) (UniProt Q13342); details: Compound concentration 10.0 uM, Protein concentration 2.0 uM
[14] = biological target: ATPase family AAA domain-containing protein 2 (Homo sapiens) (UniProt Q6PL18); details: Compound concentration 10.0 uM, Protein concentration 2.0 uM
[15] = biological target: Transcription intermediary factor 1-beta (Homo sapiens) (UniProt Q13263); details: Compound concentration 10.0 uM, Protein concentration 2.0 uM
[16] = biological target: SWI/SNF-related matrix-associated actin-dependent regulator of chromatin subfamily A member 2 (Homo sapiens) (UniProt P51531); details: Compound concentration 10.0 uM, Protein concentration 2.0 uM
[17] = biological target: Bromodomain-containing protein 2 (Homo sapiens) (UniProt P25440); details: Compound concentration 10.0 uM, Protein concentration 2.0 uM
[18] = biological target: Protein polybromo-1 (Homo sapiens) (UniProt Q86U86); test: Thermal Shift Assay. Domain start/stop: H23-D159; details: Compound concentration 10.0 uM, Protein concentration 2.0 uM
[19] = biological target: Histone acetyltransferase KAT2B (Homo sapiens) (UniProt Q92831); details: Compound concentration 10.0 uM, Protein concentration 2.0 uM
[20] = biological target: Peregrin (Homo sapiens) (UniProt P55201); details: Compound concentration 10.0 uM, Protein concentration 2.0 uM
[21] = biological target: Bromodomain-containing protein 2 (Homo sapiens) (UniProt P25440); details: Compound concentration 10.0 uM, Protein concentration 2.0 uM; remark: listed apart in the source
[22] = biological target: Protein polybromo-1 (Homo sapiens) (UniProt Q86U86); test: Thermal Shift Assay. Domain start/stop: R487-D598; details: Compound concentration 10.0 uM, Protein concentration 2.0 uM
[23] = biological target: Bromodomain testis-specific protein (Homo sapiens) (UniProt Q58F21); details: Compound concentration 10.0 uM, Protein concentration 2.0 uM
[24] = biological target: SWI/SNF-related matrix-associated actin-dependent regulator of chromatin subfamily A member 4 (Homo sapiens) (UniProt P51532); details: Compound concentration 10.0 uM, Protein concentration 2.0 uM
[25] = biological target: Bromodomain adjacent to zinc finger domain protein 1A (Homo sapiens) (UniProt Q9NRL2); details: Compound concentration 10.0 uM, Protein concentration 2.0 uM
[26] = biological target: Transcription intermediary factor 1-alpha (Homo sapiens) (UniProt O15164); details: Compound concentration 10.0 uM, Protein concentration 2.0 uM
[27] = biological target: Bromodomain-containing protein 3 (Homo sapiens) (UniProt Q15059); details: Compound concentration 10.0 uM, Protein concentration 2.0 uM
[28] = biological target: PH-interacting protein (Homo sapiens) (UniProt Q8WWQ0); details: Compound concentration 50.0 uM, Protein concentration 0.025 uM
[29] = biological target: T1, CREB-binding protein (Homo sapiens, UniProt Q92793); test: Alphascreen assay. Binding to CREBBPA (domain start/stop: R1081-G1197) by alphascreen assay
[30] = biological target: T2, Bromodomain-containing protein 4 (Homo sapiens, UniProt O60885); details: Compound concentration 10.0 uM, Protein concentration 2.0 uM
[31] = biological target: Bromodomain testis-specific protein (Homo sapiens) (UniProt Q58F21); details: Compound concentration 10.0 uM, Protein concentration 2.0 uM; remark: listed apart in the source
[32] = biological target: Histone acetyltransferase p300 (Homo sapiens) (UniProt Q09472); details: Compound concentration 10.0 uM, Protein concentration 2.0 uM
[33] = biological target: Chromatin remodeling regulator CECR2 (Homo sapiens) (UniProt Q9BXF3); details: Compound concentration 10.0 uM, Protein concentration 2.0 uM
[34] = biological target: Transcription initiation factor TFIID subunit 1 (Homo sapiens) (UniProt P21675); details: Compound concentration 10.0 uM, Protein concentration 2.0 uM; remark: listed apart in the source
[35] = biological target: Bromodomain and WD repeat-containing protein 1 (Homo sapiens) (UniProt Q9NSI6); details: Compound concentration 10.0 uM, Protein concentration 2.0 uM
[36] = biological target: Bromodomain-containing protein 1 (Homo sapiens) (UniProt O95696); details: Compound concentration 10.0 uM, Protein concentration 2.0 uM
[37] = biological target: Bromodomain adjacent to zinc finger domain protein 2A (Homo sapiens) (UniProt Q9UIF9); details: Compound concentration 10.0 uM, Protein concentration 2.0 uM
[38] = biological target: Protein polybromo-1 (Homo sapiens) (UniProt Q86U86); details: Compound concentration 10.0 uM, Protein concentration 2.0 uM; remark: listed apart in the source
[39] = biological target: Bromodomain and PHD finger-containing protein 3 (Homo sapiens) (UniProt Q9ULD4); details: Compound concentration 10.0 uM, Protein concentration 2.0 uM
[40] = biological target: Bromodomain adjacent to zinc finger domain protein 2B (Homo sapiens) (UniProt Q9UIF8); details: Compound concentration 10.0 uM, Protein concentration 2.0 uM
[41] = biological target: PH-interacting protein (Homo sapiens) (UniProt Q8WWQ0); details: Compound concentration 10.0 uM, Protein concentration 2.0 uM
[42] = biological target: Histone-lysine N-methyltransferase ASH1L (Homo sapiens) (UniProt Q9NR48); details: Compound concentration 10.0 uM, Protein concentration 2.0 uM
[43] = biological target: Protein polybromo-1 (Homo sapiens) (UniProt Q86U86); details: Compound concentration 10.0 uM, Protein concentration 2.0 uM; remark: listed apart in the source
[44] = biological target: T1, CREB-binding protein; details: Compound concentration 10.0 uM, Protein concentration 2.0 uM
[45] = biological target: Protein polybromo-1 (Homo sapiens) (UniProt Q86U86); details: Compound concentration 10.0 uM, Protein concentration 2.0 uM; remark: listed apart in the source
[46] = biological target: T2, Bromodomain-containing protein 4; test: Alphascreen assay. Binding to BRD4A (domain start/stop: N44-E168) by alphascreen assay

Chain of Bromodomain-containing protein 2 (Homo sapiens) (P25440 whole entry, looked up): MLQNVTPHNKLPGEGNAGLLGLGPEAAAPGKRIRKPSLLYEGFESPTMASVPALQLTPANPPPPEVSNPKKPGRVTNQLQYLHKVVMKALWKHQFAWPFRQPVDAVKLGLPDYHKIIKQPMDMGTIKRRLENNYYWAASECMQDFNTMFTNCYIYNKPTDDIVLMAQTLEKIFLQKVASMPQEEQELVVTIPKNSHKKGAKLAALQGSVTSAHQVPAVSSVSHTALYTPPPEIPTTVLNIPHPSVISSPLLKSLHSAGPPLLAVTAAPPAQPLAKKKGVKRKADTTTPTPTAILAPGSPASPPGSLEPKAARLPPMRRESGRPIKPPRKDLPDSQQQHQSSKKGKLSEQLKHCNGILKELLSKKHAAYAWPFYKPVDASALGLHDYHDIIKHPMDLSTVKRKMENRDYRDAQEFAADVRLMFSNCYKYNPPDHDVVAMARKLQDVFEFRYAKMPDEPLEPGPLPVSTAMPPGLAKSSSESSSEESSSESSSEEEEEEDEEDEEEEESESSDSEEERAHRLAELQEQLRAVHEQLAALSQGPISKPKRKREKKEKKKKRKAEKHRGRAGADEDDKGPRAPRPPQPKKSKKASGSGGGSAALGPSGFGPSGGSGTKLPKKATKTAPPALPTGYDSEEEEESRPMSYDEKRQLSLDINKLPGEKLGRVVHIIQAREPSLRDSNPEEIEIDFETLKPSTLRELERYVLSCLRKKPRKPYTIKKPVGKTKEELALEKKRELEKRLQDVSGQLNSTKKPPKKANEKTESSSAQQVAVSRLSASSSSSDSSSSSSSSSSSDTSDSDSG
Chain of Protein polybromo-1 (Homo sapiens) (Q86U86 whole entry): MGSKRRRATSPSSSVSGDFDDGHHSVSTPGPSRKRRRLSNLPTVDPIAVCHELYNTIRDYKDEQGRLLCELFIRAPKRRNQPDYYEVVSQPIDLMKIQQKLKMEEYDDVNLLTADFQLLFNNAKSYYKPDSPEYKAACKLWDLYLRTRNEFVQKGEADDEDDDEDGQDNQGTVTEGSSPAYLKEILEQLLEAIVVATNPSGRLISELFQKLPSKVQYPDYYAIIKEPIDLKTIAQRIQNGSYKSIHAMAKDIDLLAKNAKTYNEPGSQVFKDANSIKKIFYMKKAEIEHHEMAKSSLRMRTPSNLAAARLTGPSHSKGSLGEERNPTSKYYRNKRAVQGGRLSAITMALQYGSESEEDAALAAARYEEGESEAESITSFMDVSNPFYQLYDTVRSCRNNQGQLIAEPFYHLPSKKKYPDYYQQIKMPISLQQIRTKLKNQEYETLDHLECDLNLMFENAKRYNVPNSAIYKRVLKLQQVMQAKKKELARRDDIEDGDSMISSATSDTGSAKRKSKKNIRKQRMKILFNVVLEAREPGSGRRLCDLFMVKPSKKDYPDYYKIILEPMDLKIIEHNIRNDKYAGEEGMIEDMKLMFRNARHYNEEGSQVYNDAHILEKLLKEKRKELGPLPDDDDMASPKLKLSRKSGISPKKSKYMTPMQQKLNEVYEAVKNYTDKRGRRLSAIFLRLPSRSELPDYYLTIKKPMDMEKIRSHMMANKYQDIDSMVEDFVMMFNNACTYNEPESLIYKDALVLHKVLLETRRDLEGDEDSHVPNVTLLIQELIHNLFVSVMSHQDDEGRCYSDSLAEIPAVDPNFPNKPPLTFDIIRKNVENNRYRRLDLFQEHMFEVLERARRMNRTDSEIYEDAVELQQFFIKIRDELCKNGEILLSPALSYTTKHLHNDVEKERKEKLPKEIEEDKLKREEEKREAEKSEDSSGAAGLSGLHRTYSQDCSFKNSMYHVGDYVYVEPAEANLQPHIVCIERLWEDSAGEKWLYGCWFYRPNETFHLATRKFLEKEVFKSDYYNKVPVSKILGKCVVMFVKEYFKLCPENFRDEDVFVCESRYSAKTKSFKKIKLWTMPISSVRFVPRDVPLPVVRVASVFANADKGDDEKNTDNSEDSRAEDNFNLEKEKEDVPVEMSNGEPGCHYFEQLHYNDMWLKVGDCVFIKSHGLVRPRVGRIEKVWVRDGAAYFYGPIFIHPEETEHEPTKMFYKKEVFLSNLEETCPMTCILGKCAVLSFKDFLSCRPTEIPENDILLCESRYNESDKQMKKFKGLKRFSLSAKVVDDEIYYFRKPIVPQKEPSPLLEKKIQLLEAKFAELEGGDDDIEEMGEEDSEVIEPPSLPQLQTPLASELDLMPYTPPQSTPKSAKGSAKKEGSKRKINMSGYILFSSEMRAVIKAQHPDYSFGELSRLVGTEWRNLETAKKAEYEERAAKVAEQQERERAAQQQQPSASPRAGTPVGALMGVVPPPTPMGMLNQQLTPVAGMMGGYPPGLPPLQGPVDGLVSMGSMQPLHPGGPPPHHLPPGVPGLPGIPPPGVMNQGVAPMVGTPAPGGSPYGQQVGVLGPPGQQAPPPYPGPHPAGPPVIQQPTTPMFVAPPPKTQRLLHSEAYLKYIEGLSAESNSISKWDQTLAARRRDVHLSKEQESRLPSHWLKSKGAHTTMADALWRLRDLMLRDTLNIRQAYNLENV
Chain of Bromodomain-containing protein 3 (Homo sapiens) (Q15059 2-726 limits assumed): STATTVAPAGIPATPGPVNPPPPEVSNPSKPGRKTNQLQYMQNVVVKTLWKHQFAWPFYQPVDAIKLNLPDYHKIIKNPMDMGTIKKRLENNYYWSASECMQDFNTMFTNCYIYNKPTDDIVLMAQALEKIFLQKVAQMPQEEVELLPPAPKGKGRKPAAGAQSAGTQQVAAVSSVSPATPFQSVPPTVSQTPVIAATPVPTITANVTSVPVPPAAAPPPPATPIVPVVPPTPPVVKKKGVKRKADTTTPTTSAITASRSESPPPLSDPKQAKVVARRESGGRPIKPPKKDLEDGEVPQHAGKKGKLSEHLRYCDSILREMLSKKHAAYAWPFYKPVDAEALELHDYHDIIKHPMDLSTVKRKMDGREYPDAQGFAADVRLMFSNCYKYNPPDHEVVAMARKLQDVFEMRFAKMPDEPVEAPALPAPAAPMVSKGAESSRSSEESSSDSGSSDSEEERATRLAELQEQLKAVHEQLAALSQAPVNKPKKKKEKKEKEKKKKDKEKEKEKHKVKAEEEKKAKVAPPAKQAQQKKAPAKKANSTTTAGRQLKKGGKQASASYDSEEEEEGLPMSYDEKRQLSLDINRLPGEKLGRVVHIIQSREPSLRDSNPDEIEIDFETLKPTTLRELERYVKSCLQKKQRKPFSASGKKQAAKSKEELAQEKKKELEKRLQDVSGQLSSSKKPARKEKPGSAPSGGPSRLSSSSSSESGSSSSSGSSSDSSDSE
Chain of Chromatin remodeling regulator CECR2 (Homo sapiens) (Q9BXF3 whole entry, looked up): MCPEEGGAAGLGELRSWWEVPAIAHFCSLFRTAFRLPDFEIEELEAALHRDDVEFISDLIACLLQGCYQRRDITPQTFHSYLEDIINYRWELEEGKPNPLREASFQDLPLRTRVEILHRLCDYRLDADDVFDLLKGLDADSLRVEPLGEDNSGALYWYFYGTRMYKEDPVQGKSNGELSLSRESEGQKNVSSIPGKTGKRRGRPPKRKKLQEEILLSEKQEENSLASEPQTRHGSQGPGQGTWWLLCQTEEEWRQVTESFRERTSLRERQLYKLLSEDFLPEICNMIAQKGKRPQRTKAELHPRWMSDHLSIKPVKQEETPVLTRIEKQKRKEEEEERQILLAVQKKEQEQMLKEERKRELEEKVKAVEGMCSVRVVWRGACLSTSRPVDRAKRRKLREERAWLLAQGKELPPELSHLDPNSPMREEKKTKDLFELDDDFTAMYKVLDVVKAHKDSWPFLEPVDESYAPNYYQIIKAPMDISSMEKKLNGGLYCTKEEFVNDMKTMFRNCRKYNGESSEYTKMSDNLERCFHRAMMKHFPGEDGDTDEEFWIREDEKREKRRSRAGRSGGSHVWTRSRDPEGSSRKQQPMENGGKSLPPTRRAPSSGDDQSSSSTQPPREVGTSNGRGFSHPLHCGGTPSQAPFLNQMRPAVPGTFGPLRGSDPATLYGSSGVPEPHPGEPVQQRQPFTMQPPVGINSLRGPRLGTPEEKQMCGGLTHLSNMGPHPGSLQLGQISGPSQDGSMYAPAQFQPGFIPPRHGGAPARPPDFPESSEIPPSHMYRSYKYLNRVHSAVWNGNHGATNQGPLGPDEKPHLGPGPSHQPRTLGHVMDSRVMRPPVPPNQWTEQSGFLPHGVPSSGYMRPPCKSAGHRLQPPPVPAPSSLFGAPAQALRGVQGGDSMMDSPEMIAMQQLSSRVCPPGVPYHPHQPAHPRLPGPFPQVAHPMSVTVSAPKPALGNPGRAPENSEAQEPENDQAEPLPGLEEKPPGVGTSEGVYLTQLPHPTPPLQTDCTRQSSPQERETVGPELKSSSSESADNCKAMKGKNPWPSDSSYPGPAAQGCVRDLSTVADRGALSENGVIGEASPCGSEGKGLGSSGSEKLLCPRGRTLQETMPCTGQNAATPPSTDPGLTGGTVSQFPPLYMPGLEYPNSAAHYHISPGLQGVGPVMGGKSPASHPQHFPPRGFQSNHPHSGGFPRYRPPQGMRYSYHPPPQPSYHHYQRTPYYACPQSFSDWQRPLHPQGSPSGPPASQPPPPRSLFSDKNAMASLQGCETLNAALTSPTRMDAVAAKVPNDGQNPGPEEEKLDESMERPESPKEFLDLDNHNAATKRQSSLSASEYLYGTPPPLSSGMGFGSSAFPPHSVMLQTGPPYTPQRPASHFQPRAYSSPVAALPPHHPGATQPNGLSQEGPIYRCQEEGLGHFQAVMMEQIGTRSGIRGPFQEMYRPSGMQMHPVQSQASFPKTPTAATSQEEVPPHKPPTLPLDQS

- ΔTm [1]: 0.4 °C and 0.01 °C
- ΔTm [2]: 0.37 °C
- ΔTm [3]: 1.86 °C
- ΔTm [4]: 0.3 °C
- ΔTm [5]: 0.84 °C
- ΔTm [6]: 0.65 °C
- ΔTm [7]: 0.75 °C
- ΔTm [8]: 0.65 °C
- ΔTm [9]: 0.93 °C
- ΔTm [10]: 1.35 °C and 2.27 °C
- ΔTm [11]: 0.16 °C
- ΔTm [12]: 1.3 °C
- ΔTm [13]: 0.16 °C
- ΔTm [14]: 0.94 °C
- ΔTm [15]: 0.1 °C
- ΔTm [16]: 0.19 °C
- ΔTm [17]: 2.1 °C and 1.08 °C
- ΔTm [18]: 1.87 °C
- ΔTm [19]: -0.01 °C and 0.36 °C
- ΔTm [20]: 0.86 °C
- ΔTm [21]: 1.23 °C
- ΔTm [22]: 1.11 °C
- ΔTm [23]: 0.3 °C
- ΔTm [24]: 0.56 °C
- ΔTm [25]: 1.83 °C
- ΔTm [26]: 0.77 °C
- ΔTm [27]: 1.01 °C and 1.27 °C
- inhibition [28]: 11.6% and 13.1%
- IC50 [29]: 0.324 µM
- ΔTm [30]: 0.77 °C and 0.68 °C
- ΔTm [31]: 0.73 °C
- ΔTm [32]: 8.99 °C
- ΔTm [33]: 0.59 °C
- ΔTm [34]: 0.18 °C
- ΔTm [35]: 0.28 °C
- ΔTm [36]: 0.86 °C
- ΔTm [37]: 0.84 °C
- ΔTm [38]: 0.53 °C
- ΔTm [39]: 0.92 °C
- ΔTm [40]: 0.11 °C and 0.34 °C
- ΔTm [41]: 1.07 °C
- ΔTm [42]: 0.59 °C
- ΔTm [43]: -0.05 °C
- ΔTm [44]: 6.8 °C and 8.01 °C and 8.5 °C
- ΔTm [45]: 0.34 °C
- IC50 [46]: 2.46 µM
SMILES: CCC(=O)N1CCOc2c(cc(-c3ccc(OC)c(OC)c3)cc2OC[C@H]2CCCN(C)C2)C1
